Measured values published in US20250127698A1, “Hair Perming Compositions With Amine Derivatives” (ELC Management LLC, priority 2023, published 2025).

How the values were obtained:
[1] = DSC keratin denaturation temperature change after curling treatment; settings: for ΔT (TUntreated−TAlkalizer, keratin denaturation temperature): Type 1 Caucasian hair after curling treatment, larger ΔT indicates more damage; for damage to hair (in words): hair curling treatment, Type 1 Caucasian hair
Procedure: It is known that the denaturation of keratin in hair can be detected by differential scanning calorimetry (DSC). DSC is a thermal analysis technique used to measure phase transition temperatures and heat of transformation (enthalpy) for endothermic and exothermic reactions.
For all of the test samples discussed above, DSC measurements were performed using the Discovery DSC 2500 (from TA Instruments. New Castle, DE). The experiments were carried out over a temperature range of 40° C. to 200° C., with a scan rate of 5° C./min under nitrogen protection. DSC samples were prepared by cutting tress samples into pieces (0.1 to 1.0 mm in size) and weighing. The hair samples were mixed with deionized water, and then sealed in high volume pans for at least 6 hours before measuring. The phase transition temperature (keratin denaturation temperature) of each hair sample was analyzed using TRIOS software (Discovery DSC 2500). Untreated hair was used as a control.
Each hair sample was analyzed at least twice, and the average temperature was obtained for data analysis. This was subtracted from the denaturation temperature of the control sample (ΔT=TUntreated−TAlkalizer). A larger ΔT indicates more damage.

[2] = Curl efficiency after hair curling treatment; design: species or system human; % Change In Curl Efficiency From 1 to 8 Washes: concentration or dose not given beside the values; settings: for Curl Efficiency (%) After Treatment, 1 Wash and Dry: 1 wash with 5% SDS solution; for Curl Efficiency (%) After Treatment, 8 Washes and Dry: equivalent of 8 washes with 5% SDS solution
Excerpt: (§1) The ability of each test composition to curl hair was established by measuring “curl efficiency”. Curl efficiency is a measure of curl tightness following a hair curling treatment. The higher the efficiency, the tighter the curl. We used a well-known method of measuring curl efficiency, wherein a portion of untreated straight hair of known length, Lu, is secured on an arrangement of pegs to form a sine wave pattern of five cycles, crest-to-crest. Because the pegs are fixed, the ideal length, Li, of the portion of hair when arranged into the five-cycle wave pattern, is known. Starting with a straight swatch of hair of length Lu, the ideal outcome would be a curled swatch of hair with a length of Li. Curl efficiency is a measure of how closely the ideal is attained.
(§2) Two types of hair samples were tested for curling; mixed sourced virgin Type 1Caucasian hair, and single sourced virgin Type 1 hair. For straightening, mixed sourced virgin Type 2C (very wavy) Caucasian hair was tested. Hair straightening test samples were prepared by collecting hair fibers into tresses, and clamping each tress at both ends. For those test samples that were to undergo a straightening treatment, the length, Lu, was measured between two previously determined points.
(§3) Each hair tress was wetted (reverse osmosis water). For curling, each hair tress was wound along a peg board to form a sine wave pattern of five cycles, as described above. For straightening, each hair tress was held on a board in a straight conformation, tension was applied, and the ends of the tress were secured. All test samples (curling or straightening) were allowed to dry before proceeding. Each board with a hair tress test sample was dipped for 10 seconds into a beaker with one of the hair perming compositions. After removing a board from solution, it was immediately placed in an oven for 20 minutes at 37° C. (normal body temperature). The test sample was removed from the oven, and rinsed for five minutes with 37° C. water, being careful not to allow the running water to fall directly on the hair tresses. After blotting with a paper towel, test samples were allowed to rest for five minutes at room temperature, for air oxidation to occur. The hair straightening test samples were removed from the board, blow dried and flat ironed at 200° C., which is commonly done in salon practice. At this point, the ideal length, Li, was measured between the two previously determined point mentioned above. Thereafter, each sample was rebound to the board.
(§4) Each bound hair tress was submerged for ten seconds in a 2% solution of H2O2 to neutralize the reducing agent and promote S-S bond formation, so that the hair tress would retain a desired shape (sine wave pattern or straight) when removed from the board. Each hair tress rested at room temperature for about five minutes, then was rinsed under 37° C. running water for five minutes, and subsequently blotted with a paper towel. Each test sample hair tress was removed from the board, laid on a flat surface, and allowed to dry. The fully permed dry tresses were washed in 5% SDS (sodium dodecyl sulfate) solution (which simulates salon practice) and allowed to dry overnight.
(§5) For the curling test samples, the length, Lt, of five waves, crest to crest was measured. For the straightening test samples, the final length, Lt, was measured between the two previously determined points. At this point, differential scanning calorimetry (DSC) measurements were made on a portion of each hair tress test sample. Also, for longevity performance, each tress was subjected to the equivalent of eight hand washings in 5% SDS solution using the GyroWash color fastness to laundering tester, and allowed to dry, before another length measurement, Lt, was made.
(§6) Curl efficiencies were computed using Equation 1.
(§7) [formula] • Lu=length of the untreated hair tress • Lt=crest-to-crest length of the five-wave portion of the treated hair tress • Li=ideal length of curled hair […]

[3] = Straightening efficiency after hair straightening treatment; design: species or system human; settings: Type 2C Caucasian hair; for Straightening Efficiency (%) After Treatment, 1 Wash and Dry: 1 wash with 5% SDS solution
Excerpt: The ability of each test composition to straighten curly hair was established by measuring “straightening efficiency”. Straightening efficiency represents the degree to which curly hair is made straight by a hair straightening treatment. We start with a curly, untreated hair tress of length Lu. The tress has an ideal straight length of Li, which is the length of the untreated tress when flat ironed to its maximum, straight length. After treatment the tress has a length of Lt. Straightening efficiency is the gain in length as a percentage of the maximum possible gain in length. […] A straightening efficiency of 100% means that the treated tress retained the maximum possible length.
as §2, §3, §4, §5
Straightening efficiencies were computed using Equation 2.
[formula] • Lu=length of the untreated hair tress • Lt=length of treated hair tress • Li=ideal length of straightened hair
(Li−Lu) represents the maximum possible increase in length as a result of treatment. […]

[4] = DSC keratin denaturation temperature change after straightening treatment; design: species or system human; settings: for ΔT (TUntreated−TAlkalizer, keratin denaturation temperature): Type 3 Caucasian hair after straightening, larger ΔT indicates more damage; for damage to hair (in words): hair straightening treatment, Type 3 Caucasian hair
Excerpt: (§8) This damage occurs at the level of keratin proteins.
(§9) Untreated hair was used as a control.
(§10) A larger ΔT indicates more damage.

[5] = pH of hair perming composition; format: physicochemical; settings: for pH: hair perming composition: base of Table 2 (7.50% thioglycolic acid) plus alkalizer, same molar percentage of alkalizer
Excerpt: For testing, we prepared the hair perming compositions shown by Tables 2 and 3, below. […] All compositions contain the same molar percentage of alkalizer, the water content being adjusted accordingly.

[6] = Curl efficiency after hair curling treatment; design: species or system human; settings: for Curl Efficiency (%) After Treatment, 1 Wash and Dry: 1 wash with 5% SDS solution; for Curl Efficiency (%) After Treatment, 8 Washes and Dry: equivalent of 8 washes with 5% SDS solution
Excerpt: as §1, §2, §3, §4, §5, §6, §7

[7] = DSC keratin denaturation temperature change after curling treatment; design: species or system human; settings: for ΔT (TUntreated−TAlkalizer, keratin denaturation temperature): Type 1 Chinese hair after curling treatment, larger ΔT indicates more damage; for damage to hair (in words): hair curling treatment, Type 1 Chinese hair
Excerpt: as §8, §9, §10

SMILES | ΔT (TUntreated−TAlkalizer, keratin denaturation temperature) [1] [°C] | % Change In Curl Efficiency From 1 to 8 Washes ([2]; Type 1 Chinese hair) [%] | Curl Efficiency (%) After Treatment, 1 Wash and Dry ([2]; Type 1 Chinese hair) [%] | Curl Efficiency (%) After Treatment, 8 Washes and Dry ([2]; Type 1 Chinese hair) [%] | Straightening Efficiency (%) After Treatment, 1 Wash and Dry [3] [%] | ΔT (TUntreated−TAlkalizer, keratin denaturation temperature) [4] [°C] | pH of alkalizer composition ([5]; Table 7) | pH of alkalizer composition ([5]; Table 8) | pH of alkalizer composition ([5]; Table 9) | pH [5] | % Change In Curl Efficiency From 1 to 8 Washes ([6]; Type 1 Caucasian hair) [%] | Curl Efficiency (%) After Treatment, 1 Wash and Dry ([6]; Type 1 Caucasian hair) [%] | Curl Efficiency (%) After Treatment, 8 Washes and Dry ([6]; Type 1 Caucasian hair) [%] | ΔT (TUntreated−TAlkalizer, keratin denaturation temperature) [7] [C. °] | damage to hair (in words) [7] | further results
CCC(N)(CO)CO [AEPD, 2-Amino-2-ethyl-1,3-propanediol] | 2.36 | −15.09 | 53.93 | 45.79 | 94.70 | 1.13 | 9.09 | 9.09 | 8.98 | 9.09 | −6.40 | 43.93 | 41.12 | 1.31 | – | –
CC(N)(CO)CO [AMPD, 2-Amino-2-methyl-1,3-propanediol] | 1.66 | – | – | – | – | 0.32 | 9.09 | 9.04 | 9.04 | 9.04 | – | – | – | 0.68 | less damage than ammonium hydroxide | straightening (in words) [3]: performed better than ammonium hydroxide and MEA, but not as well as AMP
N.O [Ammonium hydroxide, reference compound] | – | – | – | – | – | – | 9.14 | 9.14 | 9.14 | 9.14 | – | – | – | 0.80 | – | –
CN(C)C(C)(C)CO [DMAMP, 2-Dimethylamino-2-methyl-1-propanol] | 6.06 | −17.06 | 58.60 | 48.60 | 93.75 | 1.43 | 10.18 | 10.18 | 10.18 | 10.18 | −20.91 | 44.86 | 35.48 | 5.78 | caused the most damage | damage to hair (in words) [1]: almost as much damage as NaOH; performance in curling, curl retention and degree of damage (FIG. 2, in words) ([2]; Type 1 Chinese hair): did not perform as well as ammonium hydroxide, AMP or MEA; performance in straightening and degree of damage versus ammonium hydroxide, AMP and MEA (FIG. 3, in words) [3]: did perform well; damage to hair (in words) [4]: comparatively little damage; performance in curling, curl retention and degree of damage (FIG. 1, in words) ([6]; Type 1 Caucasian hair): did not perform as well as ammonium hydroxide, AMP or MEA
NCC(O)CO (stereo not shown) [Isoserinol, 3-Amino-1,2-propanediol] | 3.07 | −10.93 | 59.81 | 53.27 | 97.30 | 2.17 | 9.18 | 9.18 | 9.18 | 9.18 | −7.69 | 48.60 | 44.86 | 2.51 | did not perform as well as the other alkalizers | curl after the equivalent of 8 washes (in words) ([2]; Chinese hair): ranked second for curl; curl lost after the equivalent of 8 washes, as percentage of initial curl (in words) ([2]; Chinese hair): comparable to or better than the standards; imparting curl (in words) ([2]; Type 1 Chinese hair): next best at imparting curl; curl after the equivalent of 8 washes (in words) ([6]; Caucasian hair): ranked second for curl; curl lost after the equivalent of 8 washes, as percentage of initial curl (in words) ([6]; Caucasian hair): comparable to or better than the standards; imparting curl (in words) ([6]; Type 1 Caucasian hair): next best at imparting curl
NCCO [MEA, Monoethanolamine, reference compound] | – | −13.43 | 64.77 | 56.07 | 65.38 | – | 9.40 | 9.40 | 9.40 | 9.40 | −7.41 | 50.47 | 46.73 | – | – | –
NC(CO)(CO)CO [Tris, Tromethamine] | 1.11 | – | – | – | – | 0.07 | 8.36 | 8.36 | 8.36 | 8.36 | – | – | – | −0.77 | less damage than ammonium hydroxide | damage to hair (in words) [1]: less damage than ammonium hydroxide; straightening (in words) [3]: performed better than ammonium hydroxide and MEA, but not as well as AMP; damage to hair (in words) [4]: less damage than ammonium hydroxide
